Results taken from PubChem BioAssay (NCI).
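Following 48 hours of exposure in 96-well plates, responses at five concentrations were used to interpolate endpoints linearly. The concentration for 50% growth inhibition is given as GI50. Definition used: TGI = concentration required for complete inhibition of growth.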

What follows are compounds tested on RXF 393 renal (assay: DTP human tumour cell line panel, 48 h).

With `O=C1CCC2(c3ccc(F)cc3)Nc3cc(Cl)ccc3N12` (centres undefined) as the compound, how does the TGI read?
Its TGI is over 100 µM.

How did the TGI turn out when `C/C(CC(=O)Nc1ccc(C)cc1C)=N/N=C(N)N` was run?
The TGI was over 100 µM.

These compounds were tested on SW-620 colon (assay: DTP human tumour cell line panel, 48 h).

With `COC(=O)c1c/c(=N\NC(=O)CC(=O)Nc2ccccc2OC)c2ccccc2o1` as the compound, how does the TGI read?
Its TGI is over 100 µM.

For `NC(CCC(=O)NC(CSSCCCCS(=O)O)C(=O)NCC(=O)O)C(=O)O` (centres undefined), which TGI is on record?
The TGI was over 100 µM.

Which GI50 does the source give for `C[C@@H]1OC(O)[C@@H](F)[C@H](O)[C@@H]1O` (some centres undefined) here?
The GI50 was over 100 µM.

And the TGI?
Its TGI is over 100 µM.

Which TGI does the source give for `COC12C=C(C)C(CC1)CC2C(=O)O` (centres undefined) here?
Its TGI is over 100 µM.

`OCC(O)CC[CH2][Sn]([Br])([c]1ccccc1)[c]1ccccc1` (centres undefined) was tested. Which GI50 did it give?
The GI50 was over 100 µM.

And the TGI?
Its TGI is over 100 µM.

Which TGI does the source give for `O=c1c2cc([N+](=O)[O-])ccc2sc2ccsc12` here?
Its TGI is over 100 µM.

How did the GI50 turn out when `C=CCCCCCCCCC(=O)[O][Sn]([CH2]CCC)([CH2]CCC)[CH2]CCC` was run?
Its GI50 is 0.162 µM.

What about the TGI of the same compound?
The TGI was 0.332 µM.

With `COc1ccc(C2=CC3CCC2C3)cc1` (centres undefined) as the compound, how does the TGI read?
Its TGI is over 100 µM.

How did the TGI turn out when `COc1ccc(/C=C/CN(C)CCc2ccccc2)cc1OC` was run?
The TGI was over 100 µM.

What does the source list for `[Cl-].[Dy+3].[O-]/N=C(\c1ccccc1)c1ccccn1.[O-]/N=C(\c1ccccc1)c1ccccn1.[O-]/N=C(\c1ccccc1)c1ccccn1`?
GI50: 41.8 µM; TGI: > 100 µM

For `CC(C)(CC(=O)Nc1ccccc1)C(=O)O`, which TGI is on record?
The TGI was over 100 µM.

How did the TGI turn out when `NC(=O)C(=O)N/N=C(\CC1(O)C(=O)Nc2ccccc21)c1ccc2ccccc2c1` (centres undefined) was run?
Its TGI is over 100 µM.

`Cc1cc2c(cc1C)[n+](=O)c(C(=O)C/C(=N/NC(=O)CC#N)C(=O)Nc1ccccc1C(F)(F)F)c(C)n2[O-]` was tested. Which TGI did it give?
The TGI was over 100 µM.

Which results are given for `COc1cc([N+](=O)[O-])cc2c3c(n(C)c12)[C@@]1(C)CCC2c4ccc(OCc5ccccc5)cc4CCC2C1C3` (some centres undefined)?
GI50: 90.6 µM; TGI: > 100 µM

How did the TGI turn out when `COC(=O)/C(=N/NC(=O)C[N+](C)(C)C)C(C(=O)OC)C(=O)C(=O)Nc1ccc(F)cc1` (centres undefined) was run?
The TGI was over 100 µM.

For `O=C(c1ccccc1)c1nnc(C(=O)c2ccccc2)nn1`, which TGI is on record?
The TGI was over 344 µM.

`Brc1cccc(C=NC23CC4CC(CC(C4)C2)C3)c1` was tested. Which TGI did it give?
Its TGI is over 100 µM.

Which GI50 does the source give for `Nc1nc(Cl)c2ncn(Cc3ccc(C45CC6CC(CC(C6)C4)C5)c(O)c3)c2n1` here?
The GI50 was 2.95 µM.

And the TGI?
Its TGI is 13.3 µM.

`CCC(C)c1c(Cl)nc(Cl)nc1Cl` (centres undefined) was tested. Which TGI did it give?
Its TGI is over 100 µM.

How did the GI50 turn out when `CCC[CH2][Sn]([CH2]CCC)([O]C(=O)c1cccnc1SC)[O]C(=O)c1cccnc1SC` was run?
The GI50 was 0.248 µM.

What about the TGI of the same compound?
Its TGI is 1.25 µM.

For `COc1cc(C2NC(=O)c3ccccc3N2)ccc1OCCCCCOc1c(OC)cc(C2=NOC(c3cc(OC)c(OC)c(OC)c3)C2)cc1OC` (centres undefined), which GI50 is on record?
Its GI50 is 14.7 µM.

What about the TGI of the same compound?
The TGI was over 100 µM.

`O=C1O[C@@H](c2ccc3c(c2)OCO3)C2C(=O)O[C@@H](c3ccc4c(c3)OCO4)C12` (some centres undefined) was tested. Which TGI did it give?
The TGI was over 100 µM.

With `O=C1CCC(=O)N2CCCCN12` as the compound, how does the TGI read?
The TGI was over 100 µM.

For `CC(C)C(=O)NC(=S)Nc1ccc([N+](=O)[O-])cc1C#N`, which TGI is on record?
Its TGI is over 100 µM.

For `C/C(CC(=O)Nc1cc(Cl)c(Cl)cc1Cl)=N\NC(N)=O`, which TGI is on record?
Its TGI is over 100 µM.

With `N#Cc1cc([N+](=O)[O-])ccc1NC(=O)C(=O)Nc1n[nH]c(N)n1` as the compound, how does the TGI read?
Its TGI is over 100 µM.

Which GI50 does the source give for `CS(=O)(=O)c1ccc([C@H]2O[C@@H](CO)C[C@]2(O)c2ccc(S(C)(=O)=O)cc2)cc1` here?
Its GI50 is over 100 µM.

What about the TGI of the same compound?
The TGI was over 100 µM.

For `O=C(/C=C/c1c(O)ccc2ccccc12)c1cccc(O)c1`, which TGI is on record?
Its TGI is over 100 µM.

With `CC1=NN(C(=O)Nc2ccccc2)C(=O)C2CCC(=O)N12` (centres undefined) as the compound, how does the TGI read?
The TGI was over 100 µM.

Which TGI does the source give for `COC(=O)C1Cc2c(n(Cc3ccccc3)c3ccccc23)C(CCC(=O)O)N1C(C)C` (centres undefined) here?
The TGI was over 100 µM.

`O=C(O)CNS(=O)(=O)c1ccc(NCc2ccccc2)cc1` was tested. Which TGI did it give?
Its TGI is over 100 µM.

With `O=C1c2cc(Cl)ccc2S(=O)(=O)c2c(NCCCNCCO)nc3ccccc3c21` as the compound, how does the GI50 read?
Its GI50 is 0.444 µM.

And the TGI?
Its TGI is 1.71 µM.

How did the TGI turn out when `CC(C)(C)C1C=C(Sc2ccccc2)C(=O)O1` (centres undefined) was run?
The TGI was over 100 µM.

With `CCC[CH2][Sn]1([CH2]CCC)[O]Cc2nc(C)ccc2[O]1` as the compound, how does the GI50 read?
The GI50 was 2.81 µM.

And the TGI?
Its TGI is 12.1 µM.

For `Cc1ccc2c(c1)[n+]([O-])c(N)n[n+]2[O-]`, which TGI is on record?
The TGI was over 100 µM.

With `O=c1/c(=C/c2ccco2)sc2nc3ccccc3n12` as the compound, how does the GI50 read?
The GI50 was over 100 µM.

And the TGI?
Its TGI is over 100 µM.

For `O=C1CCC2(c3ccc(F)cc3)Nc3cc(Cl)ccc3N12` (centres undefined), which TGI is on record?
The TGI was over 100 µM.

Which TGI does the source give for `C/C(CC(=O)Nc1ccc(C)cc1C)=N/N=C(N)N` here?
Its TGI is over 100 µM.

What follows are compounds tested on T-47D breast (assay: DTP human tumour cell line panel, 48 h).

With `C[C@@H]1OC(O)[C@@H](F)[C@H](O)[C@@H]1O` (some centres undefined) as the compound, how does the GI50 read?
Its GI50 is over 100 µM.

And the TGI?
Its TGI is over 100 µM.
